Reference: article PMC3363478, “Pharmacokinetics of micafungin in patients with severe burn injuries” (Critical Care, 2012)
Numbered stars: 1 amine (or outer) side, 2 acyl side, 3 side chain; on linkers, the order of the positions; unused ones are H or OH. Bridge positions count the residues as written; N and C are the ends. Square brackets hold non-standard residues; d marks the D form. Peptide text beside a SMILES is read from it. * marks the point of attachment. hTyr(3S-OH,4S-OH,3'-OSO3H) = N[C@H](C(=O)O)[C@H](O)[C@@H](O)c1ccc(O)c(OS(=O)(=O)O)c1; Orn(4R-OH,5R-OH) = O=C([C@H](C[C@@H](O)[C@@H](O)N[*:3])N[*:1])[*:2]; Pro(3S-OH,4S-Me) = C[C@H]1CN[C@H](C(=O)O)[C@H]1O; X1 = CCCCCOc1ccc(-c2cc(-c3ccc(C(=O)*)cc3)no2)cc1; Gln(3R-OH) = NC(=O)C[C@@H](O)[C@H](N)C(=O)O; Hyp = O=C(O)[C@@H]1C[C@@H](O)CN1

Experiments:
[1] = MCFG concentrations in the burn eschar of severe burn patients; format: in vivo, human; settings: patients with severe burn injuries; conclusion in words
Method: Eight severe burn patients within 14 days after injuries (M:F = 5:3, 19 to 85 years old, 35 to 85% total body surface area) were treated with MCFG (200 to 300 mg, 3.45 to 4.49 mg/kg) once daily by intravenous infusion over 1 hour. The MCFG concentrations in the plasma at the end of the initial administration of MCFG (P1), just before the second dosing (T1), at the end of the fourth dosing (P4), and just before the fifth dosing (T4) were determined, and were compared with the reported values in health volunteers. MCFG concentrations in the burn eschar at T1 and T4 were also measured.

[2] = cited from earlier work
Method: The plasma concentrations of MCFG per dose normalized with body weight (C/D) at P1, T1, P4, and T4 were 1.37 to 6.28, 0.51 to 1.38, 3.20 to 6.46, and 0.65 to 2.18 (μg/ml)/(mg/kg), respectively, indicating marked interindividual differences. […] The MCFG concentrations in the burn eschar of three patients at T1 and T4 were <0.1 to 3.98 and 1.10 to 14.81 μg/ml, respectively. Most of MCFG concentrations in the plasma and burn eschar were higher than the reported MIC90 of MCF ...

CCCCCOc1ccc(-c2cc(-c3ccc(C(=O)N[C@H]4C[C@@H](O)[C@@H](O)NC(=O)[C@@H]5[C@@H](O)[C@@H](C)CN5C(=O)[C@H]([C@H](O)CC(N)=O)NC(=O)[C@H]([C@H](O)[C@@H](O)c5ccc(O)c(OS(=O)(=O)O)c5)NC(=O)[C@@H]5C[C@@H](O)CN5C(=O)[C@H]([C@@H](C)O)NC4=O)cc3)no2)cc1 [MCFG, Micafungin] (X1-[Orn(4R-OH,5R-OH)]T[Hyp][hTyr(3S-OH,4S-OH,3'-OSO3H)][Gln(3R-OH)][Pro(3S-OH,4S-Me)]; lactam 1-C)
penetration into burn eschar [1]: capable of penetrating burn eschar
plasma C/D at P1, reported value in healthy volunteers ([2]; P1 = end of the initial administration): 5.7 (μg/ml)/(mg/kg)
plasma C/D at T1, reported value in healthy volunteers ([2]; T1 = just before the second dosing): 1.3 (μg/ml)/(mg/kg)
plasma C/D at T4, reported value in healthy volunteers ([2]; T4 = just before the fifth dosing): 2.1 (μg/ml)/(mg/kg)
